Measured values from patent US10080714B2, “Peptides and their use in the treatment of hair” (Avon Products, Inc., priority 2015, dated 2018).
Square brackets hold non-standard residues; d marks the D form. Ends that are not written are not given here. Ava = NCCCCC(=O)O

Key:
Format in all cases: cell-based, human
[1] = test system: Hair Germinal Matrix Cells; assay: Proliferation of hair matrix cells (BrdU proliferation kit); details: for Proliferation (%): 24 h treatment, percent change in cell proliferation relative to vehicle control; for Effect on Hair Germinal Matrix Cell proliferation (in words): at the concentrations tested
Protocol: Hair Germinal Matrix Cells (ScienCell, Carlsbad, Calif.) were grown in 96-well tissue culture plate (5000 cells/well) in MSCM medium supplemented with growth factors (ScienCell, Carlsbad, Calif.). Cells were incubated overnight at 37° C. and 5% CO2. Next, media were aspirated and cells were incubated in MSCM medium without growth supplement for 4-6 h, followed by treatment with given concentration of peptides for 24 h. After treatment cells were incubated with BrdU for 4 h and proliferation rate was evaluating using BrdU proliferation kit from Cell Signaling (Danvers, Mass.). The results are summarized in Table 2 below as percent change cell proliferation relative to vehicle control (peptide concentrations provided in parentheses) using the following key: 0: <10%, +:11-20%, ++:21-40%, +++:41-60%, ++++:>60%.

Keratin35 = assay: Keratin 35 mRNA expression in Hair Germinal Matrix Cells (qPCR); details: for Keratin 35 mRNA expression: 0.0001 wt. % peptide, 48 h, percent change in mRNA expression relative to vehicle control, normalized to GAPDH; for Effect on Keratin 35 mRNA expression (in words): at the concentration tested
Protocol: (§1) Hair Germinal Matrix Cells (ScienCell, Carlsbad, Calif.) were grown in 6-well tissue culture plate (1.5×10^5 cells/well) in MSCM medium supplemented with growth factors (ScienCell, Carlsbad, Calif.). Cells were incubated overnight at 37° C. and 5% CO2. Next day, cells were changed into fresh media and treated with given concentration of peptides for 48 h. After treatment, cells were washed with ice cold PBS, collected into RLT lysis buffer and RNA was extracted using RNeasy Mini Kit (Qiagen, Valencia, Calif.) following manufactures recommendations. 200 ng of RNA was used for cDNA synthesis using High Capactiy cDNA Reverse Transcription Kit (Life Technologies, Carlsbad, Calif.). 1 μL of undiluted cDNA was used per qPCR reaction. Primers used were purchased from Life technologies (Carlsbad, Calif.). Following primers were used: Keratin35 (Hs0060557_g1), KAP8 (Hs00545666_s1), KAP11 (Hs00545667_s1), P-cadherin (Hs00999925_m1). Expression was normalized to GAPDH. The conditions of q-PCR were: an incubation step at 50° C. for 2 minutes and an enzyme activation step at 95° C. for 10minutes; followed by 45 cycles of 95° C. for 30 seconds and 60° C. for 1 minute. CT value was obtained from the software of the Stratagene MX2005P.

KAP8 = KAP8 mRNA expression in Hair Germinal Matrix Cells (qPCR); details: for KAP 8 mRNA expression: 0.0001 wt. % peptide, 48 h, percent change in mRNA expression relative to vehicle control, normalized to GAPDH; for Effect on Keratin Associated Protein 8 mRNA expression (in words): at the concentration tested
Protocol: as §1

KAP11 = KAP11 mRNA expression in Hair Germinal Matrix Cells (qPCR); details: for KAP 11 mRNA expression: 0.0001 wt. % peptide, 48 h, percent change in mRNA expression relative to vehicle control, normalized to GAPDH; for Effect on KAP11 mRNA expression (in words): at the concentration tested
Protocol: as §1

P-cadherin = P-cadherin mRNA expression in Hair Germinal Matrix Cells (qPCR); details: for P-cadherin mRNA expression: 0.0001 wt. % peptide, 48 h, percent change in mRNA expression relative to vehicle control, normalized to GAPDH; for Effect on levels of desmosomal protein P-cadherin (in words): at the concentration tested
Protocol: as §1

Row | Substance | Proliferation (%) ([1]; 0.00001 wt. % peptide) | Proliferation (%) ([1]; 0.0001 wt. % peptide) | Keratin 35 mRNA expression (Keratin35) | Effect on Keratin 35 mRNA expression (in words) (Keratin35) | KAP 8 mRNA expression (KAP8) | Effect on Keratin Associated Protein 8 mRNA expression (in words) (KAP8) | KAP 11 mRNA expression (KAP11) | Effect on KAP11 mRNA expression (in words) (KAP11) | P-cadherin mRNA expression (P-cadherin) | Effect on levels of desmosomal protein P-cadherin (in words) (P-cadherin) | Effect on Hair Germinal Matrix Cell proliferation (in words) [1]
1 | K-Ava-PVGK: K-Ava-derivative of tripeptide PVG; Ava = amino valeric acid (K[Ava]PVGK) | 0 (0: <10%) | 0 (0: <10%) | +++ (+++: 41-60%) | effective in upregulating | ++++ (++++: >60%) | effective in upregulating | +++ (+++: 41-60%) | effective in upregulating | 0 (0; <10%) |  | 
2 | K-Ava-YNTK: K-Ava-derivative of tripeptide YNT; Ava = amino valeric acid (K[Ava]YNTK) | 0 (0: <10%) | 0 (0: <10%) | 0 (0; <10%) | not effective | 0 (0; <10%) | not effective | 0 (0; <10%) | not effective | +++ (+++: 41-60%) | effect was enhanced | 
3 | PVG: tripeptide of the amino acid sequence PVG | 0 (0: <10%) | + (+:11-20%) | 0 (0; <10%) |  | ++++ (++++: >60%) | effectively increase | 0 (0; <10%) |  | 0 (0; <10%) |  | effectively increase
4 | YNT: tripeptide of the amino acid sequence YNT | 0 (0: <10%) | ++ (++:21-40%) | 0 (0; <10%) |  | ++++ (++++: >60%) | effectively increase | ++++ (++++: >60%) |  | + (+: 11-20%) | effective in boosting | effectively increase
